Structures can show the parent of a compound that is named as a salt.
What was measured:
Type in all cases: cell-based, human
[1] = test system: abcA6; assay: DT1 microarray drug screening, drug-treated HepG2: abcA6; details: HepG2, doxorubicin HCl 25 nM, standard 11
Protocol: (§1) The labelled cDNA target preparation was thawed and the 150 μl added to 850 ul hybridisation buffer (500 mM sodium Phosphate pH 6.0, 1% SDS, 1% BSA, 1 mM EDTA) in a 1.5 ml microtube and heated at 95° C. for 10 min.

[2] = test system: abcC10; assay: DT1 microarray drug screening, drug-treated HepG2: abcC10; details: HepG2, doxorubicin HCl 25 nM, standard 11
Protocol: as §1

[3] = test system: abcD3; assay: DT1 microarray drug screening, drug-treated HepG2: abcD3; details: HepG2, doxorubicin HCl 25 nM, standard 11
Protocol: as §1

[4] = test system: abcD1; assay: DT1 microarray drug screening, drug-treated HepG2: abcD1; details: HepG2, doxorubicin HCl 25 nM, standard 11
Protocol: as §1

[5] = test system: abcE1; assay: DT1 microarray drug screening, drug-treated HepG2: abcE1; details: HepG2, doxorubicin HCl 25 nM, standard 11
Protocol: as §1

[6] = test system: abcC3; assay: DT1 microarray drug screening, drug-treated HepG2: abcC3; details: HepG2, doxorubicin HCl 25 nM, standard 11
Protocol: as §1

[7] = test system: abcB11; assay: DT1 microarray drug screening, drug-treated HepG2: abcB11; details: HepG2, doxorubicin HCl 25 nM, standard 11
Protocol: as §1

[8] = test system: abcC9; assay: DT1 microarray drug screening, drug-treated HepG2: abcC9; details: HepG2, doxorubicin HCl 25 nM, standard 11
Protocol: as §1

[9] = test system: abcC12; assay: DT1 microarray drug screening, drug-treated HepG2: abcC12; details: HepG2, doxorubicin HCl 25 nM, standard 11
Protocol: as §1

[10] = test system: abcB6; assay: DT1 microarray drug screening, drug-treated HepG2: abcB6; details: HepG2, doxorubicin HCl 25 nM, standard 11
Protocol: as §1

[11] = test system: abcB4; assay: DT1 microarray drug screening, drug-treated HepG2: abcB4; details: HepG2, doxorubicin HCl 25 nM, standard 11
Protocol: as §1

[12] = test system: abcB3; assay: DT1 microarray drug screening, drug-treated HepG2: abcB3; details: HepG2, doxorubicin HCl 25 nM, standard 11
Protocol: as §1

[13] = test system: abcA8; assay: DT1 microarray drug screening, drug-treated HepG2: abcA8; details: HepG2, doxorubicin HCl 25 nM, standard 11
Protocol: as §1

[14] = test system: abcA1; assay: DT1 microarray drug screening, drug-treated HepG2: abcA1; details: HepG2, doxorubicin HCl 25 nM, standard 11
Protocol: as §1

[15] = test system: abcG5; assay: DT1 microarray drug screening, drug-treated HepG2: abcG5; details: HepG2, doxorubicin HCl 25 nM, standard 11
Protocol: as §1

[16] = test system: abcB7; assay: DT1 microarray drug screening, drug-treated HepG2: abcB7; details: HepG2, doxorubicin HCl 25 nM, standard 11
Protocol: as §1

[17] = test system: abcC6; assay: DT1 microarray drug screening, drug-treated HepG2: abcC6; details: HepG2, doxorubicin HCl 25 nM, standard 11
Protocol: as §1

[18] = test system: abcB9; assay: DT1 microarray drug screening, drug-treated HepG2: abcB9; details: HepG2, doxorubicin HCl 25 nM, standard 11
Protocol: as §1

[19] = test system: abcG1; assay: DT1 microarray drug screening, drug-treated HepG2: abcG1; details: HepG2, doxorubicin HCl 25 nM, standard 11
Protocol: as §1

[20] = test system: abcB8; assay: DT1 microarray drug screening, drug-treated HepG2: abcB8; details: HepG2, doxorubicin HCl 25 nM, standard 11
Protocol: as §1

[21] = test system: abcA9; assay: DT1 microarray drug screening, drug-treated HepG2: abcA9; details: HepG2, doxorubicin HCl 25 nM, standard 11
Protocol: as §1

[22] = test system: abcA3; assay: DT1 microarray drug screening, drug-treated HepG2: abcA3; details: HepG2, doxorubicin HCl 25 nM, standard 11
Protocol: as §1

[23] = test system: abcC11; assay: DT1 microarray drug screening, drug-treated HepG2: abcC11; details: HepG2, doxorubicin HCl 25 nM, standard 11
Protocol: as §1

[24] = test system: abcD4; assay: DT1 microarray drug screening, drug-treated HepG2: abcD4; details: HepG2, doxorubicin HCl 25 nM, 2 h, standard 11
Protocol: as §1

COc1cccc2c1C(=O)c1c(O)c3c(c(O)c1C2=O)C[C@@](O)(C(=O)CO)C[C@@H]3O[C@H]1C[C@H](N)[C@H](O)[C@H](C)O1 [dox, doxorubicin HCl]
relative level of abcA6 gene expression ([1]; 2 h): 6.045 | relative level of abcA6 gene expression ([1]; 4 h): 3.367 | relative level of abcA6 gene expression ([1]; 8 h): 4.296 | relative level of abcC10 gene expression ([2]; 2 h): 5.151 | relative level of abcC10 gene expression ([2]; 4 h): 3.335 | relative level of abcC10 gene expression ([2]; 8 h): 3.633 | relative level of abcD3 gene expression ([3]; 2 h): 2.099 | relative level of abcD3 gene expression ([3]; 4 h): 1.787 | relative level of abcD3 gene expression ([3]; 8 h): 1.733 | relative level of abcD1 gene expression ([4]; 2 h): 4.477 | relative level of abcD1 gene expression ([4]; 4 h): 3.386 | relative level of abcD1 gene expression ([4]; 8 h): 3.516 | relative level of abcE1 gene expression ([5]; 2 h): 4.155 | relative level of abcE1 gene expression ([5]; 4 h): 2.794 | relative level of abcE1 gene expression ([5]; 8 h): 3.088 | relative level of abcC3 gene expression ([6]; 2 h): 7.156 | relative level of abcC3 gene expression ([6]; 4 h): 4.014 | relative level of abcC3 gene expression ([6]; 8 h): 4.2 | relative level of abcB11 gene expression ([7]; 2 h): 5.31 | relative level of abcB11 gene expression ([7]; 4 h): 3.404 | relative level of abcB11 gene expression ([7]; 8 h): 3.888 | relative level of abcC9 gene expression ([8]; 2 h): 5.598 | relative level of abcC9 gene expression ([8]; 4 h): 3.678 | relative level of abcC9 gene expression ([8]; 8 h): 3.982 | relative level of abcC12 gene expression ([9]; 2 h): 5.226 | relative level of abcC12 gene expression ([9]; 4 h): 3.532 | relative level of abcC12 gene expression ([9]; 8 h): 3.976 | relative level of abcB6 gene expression ([10]; 2 h): 5.174 | relative level of abcB6 gene expression ([10]; 4 h): 3.283 | relative level of abcB6 gene expression ([10]; 8 h): 3.612 | relative level of abcB4 gene expression ([11]; 2 h): 9.148 | relative level of abcB4 gene expression ([11]; 4 h): 5.624 | relative level of abcB4 gene expression ([11]; 8 h): 6.417 | relative level of abcB3 gene expression ([12]; 2 h): 6.838 | relative level of abcB3 gene expression ([12]; 4 h): 4.325 | relative level of abcB3 gene expression ([12]; 8 h): 4.813 | relative level of abcA8 gene expression ([13]; 2 h): 3.036 | relative level of abcA8 gene expression ([13]; 4 h): 1.786 | relative level of abcA8 gene expression ([13]; 8 h): 2.174 | relative level of abcA1 gene expression ([14]; 2 h): 3.053 | relative level of abcA1 gene expression ([14]; 4 h): 1.866 | relative level of abcA1 gene expression ([14]; 8 h): 2.346 | relative level of abcG5 gene expression ([15]; 2 h): 2.201 | relative level of abcG5 gene expression ([15]; 4 h): 1.764 | relative level of abcG5 gene expression ([15]; 8 h): 1.752 | relative level of abcB7 gene expression ([16]; 2 h): 0.2622 | relative level of abcB7 gene expression ([16]; 4 h): 0.1619 | relative level of abcB7 gene expression ([16]; 8 h): 0.1766 | relative level of abcC6 gene expression ([17]; 2 h): 7.696 | relative level of abcC6 gene expression ([17]; 4 h): 4.516 | relative level of abcC6 gene expression ([17]; 8 h): 4.899 | relative level of abcB9 gene expression ([18]; 2 h): 8.388 | relative level of abcB9 gene expression ([18]; 4 h): 4.897 | relative level of abcB9 gene expression ([18]; 8 h): 5.523 | relative level of abcG1 gene expression ([19]; 2 h): 5.472 | relative level of abcG1 gene expression ([19]; 4 h): 3.555 | relative level of abcG1 gene expression ([19]; 8 h): 3.839 | relative level of abcB8 gene expression ([20]; 2 h): 8.004 | relative level of abcB8 gene expression ([20]; 4 h): 5.438 | relative level of abcB8 gene expression ([20]; 8 h): 5.353 | relative level of abcA9 gene expression ([21]; 2 h): 7.825 | relative level of abcA9 gene expression ([21]; 4 h): 4.817 | relative level of abcA9 gene expression ([21]; 8 h): 5.72 | relative level of abcA3 gene expression ([22]; 2 h): 8.071 | relative level of abcA3 gene expression ([22]; 4 h): 4.291 | relative level of abcA3 gene expression ([22]; 8 h): 5.179 | relative level of abcC11 gene expression ([23]; 2 h): 7.608 | relative level of abcC11 gene expression ([23]; 4 h): 4.384 | relative level of abcC11 gene expression ([23]; 8 h): 5.056 | relative level of abcD4 gene expression [24]: 4.361

From US20070026408A1, “Materials and methods for analysis of atp-binding cassette transporter gene expression” (priority 2003, published 2007)
